Data on 8 compounds can be found in patent publication US11427606B2, “Azithromycin derivatives containing a phosphonium ion as anticancer agents” (Rising Tide Foundation, priority 2017, dated 2022).

This assay deals with MDA-231 cancer cells. The experiment in a line: Inhibition of proliferation assay: cell confluence (IncuCyte imaging). In kind it is cell-based. The note with it: compound at 10 uM; MDA-231 cells; IncuCyte images every 3 h over 4-5 d; relative confluence normalised to time zero. From the text:
Inhibition of Proliferation Assay
The confluence value is a surrogate for cell proliferation and growth. The value is expressed as a percent confluence, which represents the fraction of culture dish-surface that is occupied by cells. As the number of cells in the dish increases over time due to proliferation, so will their coverage of that surface increase. Expansion of the cell population on the cell culture-dish surface and confluence have mostly a linear relationship until the cells on the plate surface begin to reach saturation or maximum density.
Confluence is determined based on image analysis. Image based software can identify objects in the image field base on changes to pixel density in a grey scale image. The software can then assign a mask to those pixels within the object. Objects can be ‘gated’ out based on size and shape. To determine cell confluence, images of cells are first masked as objects. The surface area of the image that is masked is measured and compared to the total surface area of the culture dish surface to obtain a percent confluence.
MDA-231 cancer cells were obtained from ATCC. Cells were cultured in Dulbecco's Modified Eagle Medium (DMEM) supplemented with 10% Fetal Bovine Serum (FBS), 2 mM Glutamax, 1 mM Non Essential Amino Acid (NEAA) solution and 1 mM sodium pyruvate. […] Final DMSO concentrations were […]. Images were acquired with an IncuCyte Live Cell Imaging microscopy (Essen Bioscience) at every 3 h under cell culture conditions with 10× objective over 4-5 d. Cell confluence was calculated from one field of view per well using the IncuCyte in-built algorithm. Relative confluence values were obtained by normalising each value to the time zero value in each sample.
In the case of `CC[C@H]1OC(=O)[C@H](C)[C@@H](O[C@H]2C[C@@](C)(OC)[C@@H](O)[C@H](C)O2)[C@H](C)[C@@H](O[C@@H]2O[C@H](C)C[C@H](N(C)C)[C@H]2O)[C@](C)(O)C[C@@H](C)CN(C(=O)CCCCCCCCCCC[PH](c2cc(C)cc(C)c2)(c2cc(C)cc(C)c2)c2cc(C)cc(C)c2)[C@H](C)[C@@H](O)[C@]1(C)O` [Example 29, {12-[(2R,3S,4R,5R,8R,10R,11R,12S,13S,14R)-11-{[(2S,3R,4S,6R)-4-(dimethylamino)-3-hydroxy-6-methyloxan-2-yl]oxy}-2-ethyl-3,4,10-trihydroxy-13-{[(2R,4R,5S,6S)-5-hydroxy-4-methoxy-4,6-dimethyloxan-2-yl]oxy}-3,5,8,10,12,14-hexamethyl-15-oxo-1-oxa-6-azacyclopentadecan-6-yl]-12-oxododecyl}tris(3,5-dimethylphenyl)phosphonium chloride], the “% Confluence” value stood at 4.6%. In the case of `CC[C@H]1OC(=O)[C@H](C)[C@@H](O[C@H]2C[C@@](C)(OC)[C@@H](O)[C@H](C)O2)[C@H](C)[C@@H](O[C@@H]2O[C@H](C)C[C@H](N(C)C)[C@H]2O)[C@](C)(O)C[C@@H](C)CN(C(=O)CCCCC[P+](c2cc(C)cc(C)c2)(c2cc(C)cc(C)c2)c2cc(C)cc(C)c2)[C@H](C)[C@@H](O)[C@]1(C)O` [Example 1, {6-[(2R,3S,4R,5R,8R,10R,11R,12S,13S,14R)-11-{[(2S,3R,4S,6R)-4-(dimethylamino)-3-hydroxy-6-methyloxan-2-yl]oxy}-2-ethyl-3,4,10-trihydroxy-13-{[(2R,4R,5S,6S)-5-hydroxy-4-methoxy-4,6-dimethyloxan-2-yl]oxy}-3,5,8,10,12,14-hexamethyl-15-oxo-1-oxa-6-azacyclopentadecan-6-yl]-6-oxohexyl}tris(3,5-dimethylphenyl)phosphoniumhexafluorophosphate(V)], the “% Confluence” value is recorded as 4.8%.

Consider `CC[C@H]1OC(=O)[C@H](C)[C@@H](O[C@H]2C[C@@](C)(OC)[C@@H](O)[C@H](C)O2)[C@H](C)[C@@H](O[C@@H]2O[C@H](C)C[C@H](N(C)C)[C@H]2O)[C@](C)(O)C[C@@H](C)CN(CCCCCC[P+](C2CCCCC2)(C2CCCCC2)C2CCCCC2)[C@H](C)[C@@H](O)[C@]1(C)O.[I-]` [Example 9], for which the “% Confluence” value was determined as 70.9%. For the compound `CC[C@H]1OC(=O)[C@H](C)[C@@H](O[C@H]2C[C@@](C)(OC)[C@@H](O)[C@H](C)O2)[C@H](C)[C@@H](O[C@@H]2O[C@H](C)C[C@H](N(C)C)[C@H]2O)[C@](C)(O)C[C@@H](C)CN(C(=O)CCCCCCC[P+](C)(C)C)[C@H](C)[C@@H](O)[C@]1(C)O.[Cl-]` [Example 25, {8-[(2R,3S,4R,5R,8R,10R,11R,12S,13S,14R)-11-{[(2S,3R,4S,6R)-4-(dimethylamino)-3-hydroxy-6-methyloxan-2-yl]oxy}-2-ethyl-3,4,10-trihydroxy-13-{[(2R,4R,5S,6S)-5-hydroxy-4-methoxy-4,6-dimethyloxan-2-yl]oxy}-3,5,8,10,12,14-hexamethyl-15-oxo-1-oxa-6-azacyclopentadecan-6-yl]-8-oxooctyl}trimethylphosphonium chloride], the “% Confluence” value was found to be 124%. With `CC[C@H]1OC(=O)[C@H](C)[C@@H](O[C@H]2C[C@@](C)(OC)[C@@H](O)[C@H](C)O2)[C@H](C)[C@@H](O[C@@H]2O[C@H](C)C[C@H](N(C)C)[C@H]2O)[C@](C)(O)C[C@@H](C)CN(C(=O)CCCCCCC[P+](c2ccccc2)(c2ccccc2)c2ccc(N(C)C)cc2)[C@H](C)[C@@H](O)[C@]1(C)O` [Example 19, {8-[(2R,3S,4R,5R,8R,10R,11R,12S,13S,14R)-11-{[(2S,3R,4S,6R)-4-(dimethylamino)-3-hydroxy-6-methyloxan-2-yl]oxy}-2-ethyl-3,4,10-trihydroxy-13-{[(2R,4R,5S,6S)-5-hydroxy-4-methoxy-4,6-dimethyloxan-2-yl]oxy}-3,5,8,10,12,14-hexamethyl-15-oxo-1-oxa-6-azacyclopentadecan-6-yl]-8-oxooctyl}[4-(dimethylamino)phenyl]diphenylphosphonium hexafluorophosphate(V)] the figure was 10.5%; with `CC[C@H]1OC(=O)[C@H](C)[C@@H](O[C@H]2C[C@@](C)(OC)[C@@H](O)[C@H](C)O2)[C@H](C)[C@@H](O[C@@H]2O[C@H](C)C[C@H](N(C)C)[C@H]2O)[C@](C)(O)C[C@@H](C)CN(C(=O)CCCCCCCCCCC[PH](c2ccccc2)(c2ccccc2)C2COC2)[C@H](C)[C@@H](O)[C@]1(C)O` [Example 32, {12-[(2R,3S,4R,5R,8R,10R,11R,12S,13S,14R)-11-{[(2S,3R,4S,6R)-4-(dimethylamino)-3-hydroxy-6-methyloxan-2-yl]oxy}-2-ethyl-3,4,10-trihydroxy-13-{[(2R,4R,5S,6S)-5-hydroxy-4-methoxy-4,6-dimethyloxan-2-yl]oxy}-3,5,8,10,12,14-hexamethyl-15-oxo-1-oxa-6-azacyclopentadecan-6-yl]-12-oxododecyl}(oxetan-3-yl)diphenylphosphonium chloride], 129%. Regarding `CC[C@H]1OC(=O)[C@H](C)[C@@H](O[C@H]2C[C@@](C)(OC)[C@@H](O)[C@H](C)O2)[C@H](C)[C@@H](O[C@@H]2O[C@H](C)C[C@H](N(C)C)[C@H]2O)[C@](C)(O)C[C@@H](C)CN(C(=O)CCCCCCC[P+](c2ccccc2-c2c(OC(C)C)cccc2OC(C)C)(C2CCCCC2)C2CCCCC2)[C@H](C)[C@@H](O)[C@]1(C)O` [Example 6, [2′,6′-bis(propan-2-yloxy)-[1,1′-biphenyl]-2-yl]dicyclohexyl{8-[(2R,3S,4R,5R,8R,10R,11R,12S,13S,14R)-11-{[(2S,3R,4S,6R)-4-(dimethylamino)-3-hydroxy-6-methyloxan-2-yl]oxy}-2-ethyl-3,4,10-trihydroxy-13-{[(2R,4R,5S,6S)-5-hydroxy-4-methoxy-4,6-dimethyloxan-2-yl]oxy}-3,5,8,10,12,14-hexamethyl-15-oxo-1-oxa-6-azacyclopentadecan-6-yl]-8-oxooctyl}phosphonium hexafluorophosphate(V)], the “% Confluence” value is listed as 4%.

`CC[C@H]1OC(=O)[C@H](C)[C@@H](O[C@H]2C[C@@](C)(OC)[C@@H](O)[C@H](C)O2)[C@H](C)[C@@H](O[C@@H]2O[C@H](C)C[C@H](N(C)C)[C@H]2O)[C@](C)(O)C[C@@H](C)CN(C(=O)CCCCCCC[P+](c2ccccc2)(c2ccccc2)c2ccccc2-c2ccccc2)[C@H](C)[C@@H](O)[C@]1(C)O` [Example 18, {[1,1′-biphenyl]-2-yl}({8-[(2R,3S,4R,5R,8R,10R,11R,12S,13S,14R)-11-{[(2S,3R,4S,6R)-4-(dimethylamino)-3-hydroxy-6-methyloxan-2-yl]oxy}-2-ethyl-3,4,10-trihydroxy-13-{[(2R,4R,5S,6S)-5-hydroxy-4-methoxy-4,6-dimethyloxan-2-yl]oxy}-3,5,8,10,12,14-hexamethyl-15-oxo-1-oxa-6-azacyclopentadecan-6-yl]-8-oxooctyl})diphenylphosphonium hexafluorophosphate(V)]: the “% Confluence” value is given as 7.7%.
